For 14 compounds, EC50 results are on record in patent US20250170266A1 (ZYMEWORKS BC INC., priority 2022, published 2025).

Structures are written as SMILES. Read-outs that look alike come from different tables or passages of the source.

What all share (format): cell-based
The target of one assay is T1, hTLR7 (Homo sapiens, UniProt Q9NYK1).
T1 construct: host or cells: HEK-Blue hTLR7 reporter cells (HEK293-derived, own knowledge)
T1 sequence (Q9NYK1 27-1049): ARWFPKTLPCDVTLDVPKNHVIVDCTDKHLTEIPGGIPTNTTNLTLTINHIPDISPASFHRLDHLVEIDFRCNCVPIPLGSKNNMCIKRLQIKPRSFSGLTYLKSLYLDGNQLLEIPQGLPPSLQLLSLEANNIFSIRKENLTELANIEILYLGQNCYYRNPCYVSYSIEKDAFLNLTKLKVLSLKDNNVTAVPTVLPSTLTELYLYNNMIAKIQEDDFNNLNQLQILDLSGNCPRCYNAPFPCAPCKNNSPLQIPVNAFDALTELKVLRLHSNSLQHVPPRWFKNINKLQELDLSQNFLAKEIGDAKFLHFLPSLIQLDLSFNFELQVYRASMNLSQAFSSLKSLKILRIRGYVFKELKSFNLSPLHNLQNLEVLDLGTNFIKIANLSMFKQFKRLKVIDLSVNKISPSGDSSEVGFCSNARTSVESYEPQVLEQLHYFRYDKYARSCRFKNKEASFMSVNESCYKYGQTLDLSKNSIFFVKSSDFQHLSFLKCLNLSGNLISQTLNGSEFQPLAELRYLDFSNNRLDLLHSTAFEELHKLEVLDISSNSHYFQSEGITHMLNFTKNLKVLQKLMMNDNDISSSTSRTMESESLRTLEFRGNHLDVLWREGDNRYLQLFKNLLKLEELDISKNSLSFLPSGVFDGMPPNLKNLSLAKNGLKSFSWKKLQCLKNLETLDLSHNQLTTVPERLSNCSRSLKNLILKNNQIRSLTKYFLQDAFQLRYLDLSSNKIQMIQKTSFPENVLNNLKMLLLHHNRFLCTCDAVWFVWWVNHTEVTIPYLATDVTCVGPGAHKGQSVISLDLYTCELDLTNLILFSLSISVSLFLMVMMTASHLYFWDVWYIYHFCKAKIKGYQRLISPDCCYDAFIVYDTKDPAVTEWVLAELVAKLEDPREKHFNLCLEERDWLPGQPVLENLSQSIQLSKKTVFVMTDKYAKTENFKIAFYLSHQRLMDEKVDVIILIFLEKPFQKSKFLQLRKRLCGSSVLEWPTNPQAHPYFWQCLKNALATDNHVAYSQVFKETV
Nature of the assay: Reporter Gene Assay (RGA), HEK-Blue hTLR7 reporter cells, SEAP readout. Conditions: overnight incubation, SEAP absorbance 620 nm. As to the method:
(§1) 1.5×10^4 HEK-Blue™ hTLR7 (Invivogen, San Diego, CA) or HEK-Blue™ mTLR7 (Invivogen, San Diego, CA) reporter cells were treated with a titration series of test compound (4-fold titration from […], 11 points). Compounds were initially diluted to 1 mM in DMSO and subsequently serial-diluted in assay media (HEK-Blue™ Detection; Invivogen, San Diego, CA). Cells with test compound were incubated overnight at 37° C.+5% CO2, and the amount of secreted embryonic alkaline phosphatase (SEAP) was determined by measuring absorbance (620 nm) using a Synergy™ H1 microplate reader.
(§2) Each assay included a positive control compound (referred to herein as “benchmark,” see, e.g., TABLE 3 below, and taken from International Patent Publication No. WO2017/072662, structure shown below) and a negative control (growth medium). […] The structure of the benchmark compound from International Patent Publication No. WO 2017/072662 is as follows: […]
In general terms: A reporter such as luciferase makes a cellular process visible.

A further assay addresses T2, mTLR7 (Mus musculus, UniProt P58681).
T2 construct: host or cells: HEK-Blue mTLR7 reporter cells (HEK293-derived, own knowledge)
T2 sequence (P58681 27-1050): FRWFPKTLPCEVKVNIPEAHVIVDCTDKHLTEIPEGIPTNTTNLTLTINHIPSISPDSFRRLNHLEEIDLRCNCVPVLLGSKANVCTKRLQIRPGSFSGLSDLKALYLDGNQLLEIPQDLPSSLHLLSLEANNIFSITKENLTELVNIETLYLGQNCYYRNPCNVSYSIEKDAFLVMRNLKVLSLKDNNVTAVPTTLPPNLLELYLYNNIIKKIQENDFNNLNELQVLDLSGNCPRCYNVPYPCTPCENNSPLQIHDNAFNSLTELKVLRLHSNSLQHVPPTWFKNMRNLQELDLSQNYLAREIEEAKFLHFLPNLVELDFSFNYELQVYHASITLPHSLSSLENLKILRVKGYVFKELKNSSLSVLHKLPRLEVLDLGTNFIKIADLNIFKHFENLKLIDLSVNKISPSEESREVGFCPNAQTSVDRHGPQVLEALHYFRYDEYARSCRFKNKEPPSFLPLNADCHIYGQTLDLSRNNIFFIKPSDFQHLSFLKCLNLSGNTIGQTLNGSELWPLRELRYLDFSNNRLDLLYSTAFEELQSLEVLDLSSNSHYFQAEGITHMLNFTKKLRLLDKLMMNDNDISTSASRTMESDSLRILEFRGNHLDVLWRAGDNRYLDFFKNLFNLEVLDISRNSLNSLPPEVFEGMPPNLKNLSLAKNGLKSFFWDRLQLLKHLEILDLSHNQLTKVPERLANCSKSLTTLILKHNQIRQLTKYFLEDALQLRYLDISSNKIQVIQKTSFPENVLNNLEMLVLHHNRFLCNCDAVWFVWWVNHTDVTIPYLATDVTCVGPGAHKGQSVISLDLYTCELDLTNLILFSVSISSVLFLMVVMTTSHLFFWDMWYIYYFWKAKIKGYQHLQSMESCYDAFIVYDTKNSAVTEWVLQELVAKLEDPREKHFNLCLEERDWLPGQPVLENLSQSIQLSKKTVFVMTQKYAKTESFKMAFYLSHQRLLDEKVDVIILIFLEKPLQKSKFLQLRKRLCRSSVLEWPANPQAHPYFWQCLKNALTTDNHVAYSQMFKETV
Nature of the assay: Reporter Gene Assay (RGA), HEK-Blue mTLR7 reporter cells, SEAP readout. Conditions: overnight incubation, SEAP absorbance 620 nm. Here is the method:
as §1, §2

For assay [1], the system named is Human peripheral blood mononuclear cells (PBMCs). Nature of the assay: Human PBMC Assay, cytokine release (HTRF). Conditions: PBMC, 24 hours.
Description: Human peripheral blood mononuclear cells (PBMCs) were isolated from fresh Leukopak using magnetic separation. Briefly, erythrocytes and granulocytes were magnetically labeled with Erythrocyte Depletion MicroBeads (Miltenyi Biotec) and Granulocyte Depletion MicroBeads (Miltenyi Biotec), respectively. The cell suspension was loaded onto a Multi-24 Column Block (Miltenyi Biotec) and placed in the magnetic field of a MultiMACS Cell24 Separator Plus (Miltenyi Biotec). The unlabelled PBMCs were collected in the run through. PBMCs were resuspended in CryoStor® CS10 ([…]) and frozen. On the day before the assay, PBMCs were thawed in warm assay buffer (RPMI+10% FBS) and resuspended in assay buffer+10 ng/ml hIL3 (R&D Systems). Cells were rested at 37° C.+5% CO2 overnight. The following day, cells were spun down and resuspended in fresh assay buffer. 300,000 cells were added to each well of plates containing test compound. For test compound preparation, each compound was initially diluted to 1 mM in DMSO and further diluted in assay buffer. A 4-fold 11-point titration starting from 15 μM was performed. Cells were incubated with test compound at 37° C.+5% CO2 for 24 hours before supernatant was harvested. Human interleukin 6 (hIL6), human tumor necrosis factor alpha (hTNFα), and human interferon alpha (hIFNα) were quantified in the supernatant using homogeneous time resolved fluorescence (Cisbio).
as §2

[2] abbreviates: hIFNα in supernatant, EC50 values approximated and divided into groups, read-out: PBMC IFNa EC50.

Regarding `CCOc1nc(N)c2nc(O)n(Cc3ccc(CNC4CCCNC4)cc3OC)c2n1` (stereo not drawn) [Compound 127, 6-amino-2-ethoxy-9-(2-methoxy-4-((piperidin-3-ylamino)methyl)benzyl)-9H-purin-8-ol], the half-maximal effective concentration (EC50) is 175 nM at hTLR7, 1030 nM at mTLR7 and over 10 nM in assay [1] (setting [2]).

Take `CCOc1nc(N)c2nc(O)n(Cc3ccc(CNCC(O)CN4CCOCC4)cc3OC)c2n1` (stereo not drawn) [Compound 136, 6-amino-2-ethoxy-9-(4-(((2-hydroxy-3-morpholinopropyl)amino)methyl)-2-methoxybenzyl)-9H-purin-8-ol]: the EC50 on hTLR7 is 223 nM; at mTLR7 it was 1710 nM; in assay [1] (setting [2]), over 10 nM.

In the case of `CCCCCNc1nc(N)nc2ccn(Cc3ccc(CN4CCN(CCNC(=O)CC(SC[C@@H](N)C(=O)O)C(=O)O)CC4)cc3OC)c12` (stereo partly drawn) [Benchmark, reference compound], the EC50 at hTLR7 amounted to 27 nM; on mTLR7, 95.4 nM.

On to `CCOc1nc(N)c2nc(O)n(Cc3ccc(CNCCN4CCNCC4)cc3OC)c2n1` [Compound 134, 6-amino-2-ethoxy-9-(2-methoxy-4-(((2-(piperazin-1-yl)ethyl)amino)methyl)-benzyl)-9H-purin-8-ol], for which the concentration giving a half-maximal response (EC50) on hTLR7 is 363 nM; at mTLR7, 1650 nM; in assay [1] (setting [2]), over 10 nM.

In the case of `CCOc1nc(N)c2nc(O)n(Cc3ccc(CNC/C=C/CN)cc3OC)c2n1` [Compound 126, (E)-6-amino-9-(4-(((4-aminobut-2-en-1-yl)amino)methyl)-2-methoxybenzyl)-2-ethoxy-9H-purin-8-ol], the EC50 on hTLR7 is 33 nM; at mTLR7, 659 nM; in assay [1] (setting [2]), over 10 nM.

Regarding `CCOc1nc(N)c2nc(O)n(Cc3ccc(CN4CCN(C(=O)CCCCCNC(=O)CC(SC[C@@H](N)C(=O)O)C(=O)O)CC4)cc3OC)c2n1` (stereo partly drawn) [Compound 148, 2-(((S)-2-amino-2-carboxyethyl)thio)-4-((6-(4-(4-((6-amino-2-ethoxy-8-hydroxy-9H-purin-9-yl)methyl)-3-methoxybenzyl)piperazin-1-yl)-6-oxohexyl)amino)-4-oxobutanoic Acid], the EC50 is 167 nM on hTLR7, 1260 nM at mTLR7 and over 10 nM in assay [1] (setting [2]).

As for `CCCCOc1nc(N)c2nc(O)n(Cc3ccc(CCNC4CCNCC4)cc3OC)c2n1` [Compound 179, 6-amino-2-butoxy-9-(2-methoxy-4-(2-(piperidin-4-ylamino)ethyl)benzyl)-9H-purin-8-ol], the EC50 was 181 nM at hTLR7, 422 nM at mTLR7 and over 10 nM in assay [1] (setting [2]).

For the compound `CCOc1nc(N)c2nc(O)n(Cc3ccc(CNC4CCNC4)cc3OC)c2n1` (stereo in doubt) [Compound 133, (S)-6-amino-2-ethoxy-9-(2-methoxy-4-((pyrrolidin-3-ylamino)methyl)benzyl)-9H-purin-8-ol], the EC50 at hTLR7 was 178 nM; at mTLR7, 859 nM; in assay [1] (setting [2]), over 10 nM.

In the case of `CCOc1nc(N)c2nc(O)n(Cc3ccc(CNC4CC5(CNC5)C4)cc3OC)c2n1` [Compound 130, 9-(4-(((2-azaspiro[3.3]heptan-6-yl)amino)methyl)-2-methoxybenzyl)-6-amino-2-ethoxy-9H-purin-8-ol], the concentration for a half-maximal effect (EC50) is 202 nM on hTLR7, 1270 nM at mTLR7 and over 10 nM in assay [1] (setting [2]).

For the compound `CCOc1nc(N)c2nc(O)n(Cc3ccc(CNCCCN4CCNCC4)cc3OC)c2n1` [Compound 131, 6-amino-2-ethoxy-9-(2-methoxy-4-(((3-(piperazin-1-yl)propyl)amino)methyl)-benzyl)-9H-purin-8-ol], the EC50 at hTLR7 was 86.1 nM; on mTLR7 it was 676 nM; in assay [1] (setting [2]), over 10 nM.

In the case of `CCOc1nc(N)c2nc(O)n(Cc3ccc(CN4CCN(C(=O)CCOCCOCCOCCNC(=O)CC(SC[C@@H](N)C(=O)O)C(=O)O)CC4)cc3OC)c2n1` (stereo partly drawn) [Compound 149, (19S)-19-amino-1-(4-(4-((6-amino-2-ethoxy-8-hydroxy-9H-purin-9-yl)methyl)-3-methoxybenzyl)piperazin-1-yl)-16-carboxy-1,14-dioxo-4,7,10-trioxa-17-thia-13-azaicosan-20-oic Acid], the values for the 50% effective concentration (EC50) (on hTLR7; at mTLR7; in assay [1] (setting [2])) were 520 nM, 1260 nM and over 10 nM, respectively.

Take `CCCCOc1nc(N)c2nc(O)n(Cc3ccc(CCN4CCC5(CCNCC5)CC4)cc3OC)c2n1` [Compound 177, 9-(4-(2-(3,9-diazaspiro[5.5]undecan-3-yl)ethyl)-2-methoxybenzyl)-6-amino-2-butoxy-9H-purin-8-ol]: the results for the EC50 (on hTLR7; on mTLR7; in assay [1] (setting [2])) were 411 nM, 15500 nM and over 10 nM, respectively.

For the compound `CCOc1nc(N)c2nc(O)n(Cc3ccc(CNC4CNC4)cc3OC)c2n1` [Compound 129, 6-amino-9-(4-((azetidin-3-ylamino)methyl)-2-methoxybenzyl)-2-ethoxy-9H-purin-8-ol], the EC50 was 81.1 nM on hTLR7, 541 nM at mTLR7 and over 10 nM in assay [1] (setting [2]).

As to `CCCCOc1nc(N)c2nc(O)n(Cc3ccc(CNCc4ccccc4)cc3OC)c2n1` [Compound 165, 6-amino-9-(4-((benzylamino)methyl)-2-methoxybenzyl)-2-butoxy-9H-purin-8-ol], the concentration giving a half-maximal response (EC50) is under 0.1 nM on hTLR7; under 0.1 nM at mTLR7; under 0.1 nM in assay [1] (setting [2]); 6990 nM in assay [1] (hIL6 in supernatant, read-out: PBMC IL6 EC50).

By EC50 is commonly meant the concentration giving half of the maximal effect.
